Source: patent US11118162B2, “Cytopheresis cartridges and use thereof” (SeaStar Medical, Inc., priority 2010, dated 2021)

Tests used:
[1] = test system: leukocytes in human whole blood; experiment: In vitro leukocyte activation in heparinized human whole blood; assay type: cell-based; details: for Lactoferrin: n = 4; for Elastase: n = 5
Method: Heparinized human whole blood was added to tubes with or without lipopolysaccharide (LPS) (10 μg/mL) or formyl-Methionyl-Leucyl-Phenylalanine (fMLF, 50 nM). […] The release of IL-6, IL-8, or IL-10 was measured using commercially available ELISA kits from R&D Systems. The release of elastase was measured using a commercially available ELISA kit from Bender MedSystems. The release of lactoferrin was measured using a commercially available ELISA kit from EMD Chemicals. […] Samples were incubated for various times at 37° C. and 5% CO2. CD11b activation was measured using an FITC-conjugated mouse anti-human antibody (AbD Serotech) and evaluated on an Accuri C6 flow cytometer.

[2] = test system: leukocytes in porcine blood; experiment: Microscopic flow chamber: leukocyte interaction with polysulfone SCD membrane; assay type: cell-based, pig
Excerpt: A custom microscopic flow chamber system was set up to enable microscopic analysis of leukocyte interaction with the SCD membrane. The flow chamber consisted of a polycarbonate housing with an inlet and outlet for perfusion. A polysulfone membrane was affixed to the polycarbonate block with a gasket which directed shear flow. The thickness of the gasket (100 μm) along with the length (2 cm) and the width of the channel (1.5 mm) determined the volume of the flow chamber. Microscopic imaging was accomplished through an optical window made up of a cover glass affixed to the bottom of the polycarbonate block. Either isolated blood or purified leukocytes were used for this study.
Isolated blood was prone to activation from excessive handling. […] Blood passed through the flow chamber at a rate of 20 μL/min with calculated shear forces between 1-10 dynes/cm^2. […]
Microscopic analysis of cell capture events was accomplished using either a Zeiss Axiovert 200M or Axio-Observer epifluorescence microscope equipped with a microscope stage-top incubator to control environmental temperature and CO2 content. Fluorescence images were acquired with either a Zeiss MRm3 or an Icc1 camera at a frequency of 1 frame/second for 5 minutes, for analysis of leukocyte/membrane interaction, and at 1 frame/minute for 1 hour sequences, for analysis of long term leukocyte attachment. […]

| Compound | Lactoferrin ([1]; Baseline) [mg/mL] | Elastase ([1]; Baseline) [mg/mL] | Lactoferrin ([1]; Stimulated (LPS, fMLF)) [mg/mL] | Elastase ([1]; Stimulated (LPS, fMLF)) [mg/mL] | Persistent leukocyte adhesion events ([2]; 1 hour sequences, LPS and citrate versus LPS only) | Rolling events ([2]; LPS and citrate treated blood) |
| --- | --- | --- | --- | --- | --- | --- |
| heparin | 8.47 | 2.73 | 12.42 | 4.52 | – | – |
| O=C(O)CC(O)(CC(=O)O)C(=O)O [Citrate] | – | – | – | – | far fewer | observed increase |
